Laboratory results reported in PMC11984924, “Dipeptidic Phosphonates: Potent Inhibitors of Pseudomonas aeruginosa Elastase B Showing Efficacy in a Murine Keratitis Model” (Advanced Science, 2025).

Experiments:
[1] = (R)-30 levels in serum of keratitis mice; format: in vivo; details: C57BL/6, mouse, 5 µL of 1 mg/mL (R)-30 per dose (nine doses, every 8 h), keratitis mice after topical ocular dosing
Description: 3.15 Bioanalytical sample preparation of keratitis samples for determination of
concentration of ( R)-30 in eye and serum
All PD serum and eye homogenate samples were analyzed via HPLC -MS/MS using an Agilent
1290 Infinity II HPLC system and coupled to an AB Sciex QTrap6500+ mass spectrometer.
First, a calibration curve was prepared by spiking different concentrations of (R)-30 into the
respective matrix (mouse serum (pooled, from CD -1 mice) for plasma samples, isotonic
sodium chloride solution for eye homogenate samples). Caffeine was used as an internal
standard. In addition, quality control samples (QCs) were prepared for (R)-30 with the
respective matrix. The following extraction procedure was used: 7.5 μL of a serum sample
(calibration samples, QCs or PD samples) was extracted with 37.5 μL of methanol containing
12.5 ng/mL of caffeine as internal standard for 5 min at 2,000 r pm on an Eppendorf MixMate®
vortex mixer. Then samples (serum) were spun down at 13,000 rpm for 5 min. Supernatants
were transferred to standard HPLC-glass vials. 50 μL of an eye homogenate sample […]
standard were analyzed using MultiQuant 3.0 software (AB Sciex). […]
for quantification are marked with a ‘Q’ in the table, the other MS/MS pairs for the respective
compound were used for qualification. Peaks of PD samples were quantified using the
calibration curve. The accuracy of the calibration curve was determined using QC s […]

[2] = In vivo pharmacokinetic study in CD-1 mice, 30 mg/kg SC; details: male, mouse, 30 mg/kg subcutaneous
Description: page 60: Figure S7: Basolateral concentration of 9 (A) and 30 (B) in the Calu-3 permeability model. […] For pharmacokinetic experiments, outbred male CD-1 mice (Charles River, Netherlands), 4 weeks old, were used. The animal studies were conducted in accordance with the recommendations of the European Community (Directive 2010/63/EU, 1st January 2013). All animal procedures were performed in strict accordance with the German regulations of the Society for Laboratory Animal Science (GV-SOLAS) and the European Health Law of the Federation of Laboratory Animal Science Associations (FELASA). Animals were excluded from further analysis if sacrifice was necessary according to the human endpoints established by the ethical board. All experiments were approved by the ethical board of the […] Verbraucherschutz und […], Oldenburg, Germany. 30 was subjected to a focused PK study and was administered 30 mg/kg SC. At time points t= […] euthanatized and blood was collected from the heart. For all PK studies, whole blood was collected into Eppendorf tubes coated with 0.5 M EDTA and immediately spun down at 13,000 rpm for 10 min at 4°C. The plasma was transferred into a new Eppendorf tube and then stored at -80°C until analysis. Then, a broncheoalveolar lavage was conducted using isotonic sodium chloride solution for all PK studies. For all PK studies, lung, kidney and liver were aseptically removed and homogenized using a Polytron (Kinematica) in isotonic sodium chloride solution. Organ samples were aliquoted into Eppendorf tubes and stored at -80°C until analysis. Moreover, spontaneous urine was also collected. […] system and coupled to an AB Sciex QTrap6500+ mass spectrometer as described previously.[10] Mass spectrometric conditions can be found in Table S5. First, a calibration curve was prepared by spiking different concentrations of 30 into the respective matrix (mouse […] (1 picture or pasted object on this page, not shown here) page 61: plasma (pooled, from CD-1 mice) for plasma samples, isotonic sodium chloride solution for BALF samples, lung tissue for lung samples, kidney tissue for kidney samples, liver tissue for liver samples and urine for urine samples). Caffeine was used as an internal standard. In addition, quality control samples (QCs) were prepared for 30 with the respective matrix. The following extraction procedure was used: 7.5 μl of a plasma sample (calibration samples, QCs […] internal standard for 5 min at 2000 rpm on an Eppendorf MixMate® vortex mixer. 10 μl of a urine sample (calibration samples, QCs or PK samples) was extracted with 40 μl of methanol containing 12.5 ng/ml of caffeine as internal standard for 5 min at 2000 rpm on an Eppendorf MixMate® vortex mixer. Then samples (plasma and urine) were spun down at 13.000 rpm for 5 min. Supernatants were transferred to standard HPLC-glass vials. 50 μl of a BALF / lung tissue / kidney tissue or liver tissue sample (calibration samples, QCs or PK samples) were extracted with 50 μl of methanol and 1 μl caffeine (concentration 1 μg/ml in methanol) for 5 min at 800 rpm on an Eppendorf MixMate® vortex mixer. Then samples (BALF, liver, kidney, lung) were spun down at 4,000 rpm for 40 min at 4°C. Supernatants were transferred to 96well V-bottom plates (Greiner). Urea was used to enable calculation of epithelial lining fluid (ELF) concentrations. Peak areas of each sample and of the corresponding internal standard were analyzed using MultiQuant 3.0 software (AB Sciex). Peak areas of the respective sample were normalized to the internal standard peak area. Peaks of PK samples were quantified using the calibration curve. The accuracy of the calibration curve was determined using QCs independently prepared on different days. PK parameters were determined using a non- compartmental analysis with PKSolver.[11] ELF concentrations were calculated using the following formula (2).[12] (1) V_ELF=V_BALF × (Urea_BALF)/(Urea_Plasma ) (2) c_ELF=c_BALF× V_BALF/V_ELF S60

Structure (SMILES) | concentration at 3 days post infection [1] [nM] | Kp ([2]; CD-1, epithelial lining fluid (ELF) / plasma, sc, read-out: ELF/plasma ratio) | AUC(0-t) ([2]; CD-1, sc, plasma) [µg·h/mL] | CL/F ([2]; CD-1, sc, plasma) [mL/min/kg] | Cmax ([2]; CD-1, sc, plasma) [ng/mL] | MRT ([2]; CD-1, sc, plasma) [h] | Tmax ([2]; CD-1, sc, plasma) [h] | half-life ([2]; CD-1, sc, plasma) [h]
CC(=O)c1ccc(NC(=O)[C@@H](NC(=O)[C@@H](CC(C)C)P(=O)(O)O)C(C)C)cc1 [(R)‐30] | < 500 | – | – | – | – | – | – | –
CC(=O)c1ccc(NC(=O)[C@@H](NC(=O)C(CC(C)C)P(=O)(O)O)C(C)C)cc1 (some centres unmarked) [compound 30] | – | ~0.38 | 249 ± 15.5 | 1.3 ± 0.3 | 32200 ± 8500 | 24.6 ± 16 | 0.75 ± 0.4 | 18.5 ± 11
